Measured values from publication PMC9202514 (FASEB journal : official publication of the Federation of …, 2022).

Experiments:
GmITPK1 = target: T1, GmITPK1 (Glycine max, UniProt A7X657); experiment: InsP6 kinase activity assay; format: biochemical; details: 1 mM ATP, pH 7.2, 25 °C
T1 sequence (A7X657 1-339): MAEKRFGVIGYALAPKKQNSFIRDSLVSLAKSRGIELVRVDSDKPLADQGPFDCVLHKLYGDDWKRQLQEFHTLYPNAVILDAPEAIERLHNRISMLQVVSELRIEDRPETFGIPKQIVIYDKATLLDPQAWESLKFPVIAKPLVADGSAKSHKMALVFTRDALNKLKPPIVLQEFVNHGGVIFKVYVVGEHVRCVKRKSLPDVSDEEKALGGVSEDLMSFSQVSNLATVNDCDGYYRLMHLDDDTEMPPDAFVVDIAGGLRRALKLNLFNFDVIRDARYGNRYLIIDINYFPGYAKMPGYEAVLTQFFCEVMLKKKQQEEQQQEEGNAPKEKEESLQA

GmITPK2 = target: T2, GmITPK2 (Glycine max, UniProt A7X665); experiment: Ins; format: biochemical; details: 1 mM ADP, pH 7.2, 25 °C
T2 sequence (A7X665 1-315): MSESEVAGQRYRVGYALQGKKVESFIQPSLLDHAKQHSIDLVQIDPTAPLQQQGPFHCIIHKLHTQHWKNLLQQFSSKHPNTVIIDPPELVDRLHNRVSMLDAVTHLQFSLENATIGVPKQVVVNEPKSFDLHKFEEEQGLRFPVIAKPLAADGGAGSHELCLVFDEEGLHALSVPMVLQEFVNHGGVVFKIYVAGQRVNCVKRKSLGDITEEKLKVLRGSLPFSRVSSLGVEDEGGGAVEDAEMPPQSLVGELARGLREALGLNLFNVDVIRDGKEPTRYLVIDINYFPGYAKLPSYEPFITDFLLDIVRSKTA

| Ins(1,3,4,5,6)P5 phosphatase activity assay (GmITPK2) | Compound | InsP6 kinase activity assay (GmITPK1) |
| --- | --- | --- |
| – | O=P(O)(O)O[C@H]1[C@H](OP(=O)(O)O)[C@@H](OP(=O)(O)O)[C@H](OP(=O)(O)O)[C@@H](OP(=O)(O)O)[C@H]1OP(=O)(O)O [InsP6] | recombinant His6MBP-GmITPK1 is an active InsP6 kinase |
| GmITPK2 exhibited the higher activity | O=P(O)(O)O[C@@H]1[C@@H](OP(=O)(O)O)[C@H](OP(=O)(O)O)[C@H](O)[C@H](OP(=O)(O)O)[C@H]1OP(=O)(O)O [Ins(1,3,4,5,6)P5] | – |
